{"source": "ChEMBL document CHEMBL1149203", "about": "“Design, synthesis, and characterization of an ATP-peptide conjugate inhibitor of protein kinase A” (Bioorg Med Chem Lett, 2004)", "target": "cAMP-dependent protein kinase (PKA) (Homo sapiens, UniProt P22694+P17612+P22612)", "assay": "Inhibition of protein kinase A expressed in Escherichia coli"}
{"smiles": "CC(=O)N[C@@H](CC(C)C)C(=O)N[C@@H](CCCN=C(N)N)C(=O)N[C@@H](CCCN=C(N)N)C(=O)N[C@@H](C)C(=O)NC(CNC(=O)CSP(=O)(O)OP(=O)(O)OP(=O)(O)OC[C@H]1O[C@@H](n2cnc3c(N)ncnc32)[C@H](O)[C@@H]1O)C(=O)N[C@@H](CC(C)C)C(=O)NCC(=O)O", "note": "(stereo partly specified)", "values": [{"measurement": "Ki", "result": 3.8, "unit": "µM"}]}
